From patent publication US20230119013A1, “N-CYANOPYRROLIDINES WITH ACTIVITY AS USP30 INHIBITORS” (MISSION THERAPEUTICS LIMITED, priority 2020, published 2023)

Columns and labels:
[1] = test system: UCHL1, USP1, USP2, USP6, USP9x, USP10, USP15, USP16, USP20, USP21, USP22, USP25, USP28, USP35, USP36, USP46/UAF1; experiment: DUB biochemical IC50 assays (off-target panel)
Mouse plasma stability = format: in vitro ADME; settings: read-out: Stability Mouse plasma t1/2
TK6 cells = experiment: In vitro micronucleus assay in TK6 cells; format: cell-based; settings: 27 hours recovery
Protocol: The micronucleus assay may be used to determine if a compound is genotoxic by evaluating the presence of micronuclei. Micronuclei may contain chromosome fragments produced from DNA breakage (clastogens) or whole chromosomes produced by disruption of the mitotic apparatus (aneugens).
Example 1 was assessed in the bacterial reverse mutation assay (Ames) and in vitro micronucleus assay. All in vitro tests were conducted with and without exogenous metabolic activation using concentrations up to those limited by cytotoxicity or insolubility.
Induction of chromosome damage was assessed using the in vitro micronucleus assay in TK6 cells. Example 1 was negative for induction of micronuclei when incubated for 3 hours in the presence of exogenous metabolic activation followed by 27 hours recovery, and also when incubated for 27 hours in the absence of exogenous metabolic activation followed by 27 hours recovery.

Cathepsin L = Cathepsin L (Homo sapiens, UniProt P07711); experiment: Cathepsin IC50, Cathepsin L; format: biochemical
Chain of Cathepsin L (P07711 114-333, species assumed): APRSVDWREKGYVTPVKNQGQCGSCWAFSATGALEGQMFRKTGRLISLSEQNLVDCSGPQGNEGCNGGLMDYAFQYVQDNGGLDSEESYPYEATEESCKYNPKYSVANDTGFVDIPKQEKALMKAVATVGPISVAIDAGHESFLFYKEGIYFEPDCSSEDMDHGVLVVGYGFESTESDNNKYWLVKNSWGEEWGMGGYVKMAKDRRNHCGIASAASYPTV

UCHL1 = molecular target: T1, UCHL1 (Homo sapiens, UniProt P09936); experiment: DUB IC50 UCHL1; format: biochemical
T1 sequence (P09936 1-223): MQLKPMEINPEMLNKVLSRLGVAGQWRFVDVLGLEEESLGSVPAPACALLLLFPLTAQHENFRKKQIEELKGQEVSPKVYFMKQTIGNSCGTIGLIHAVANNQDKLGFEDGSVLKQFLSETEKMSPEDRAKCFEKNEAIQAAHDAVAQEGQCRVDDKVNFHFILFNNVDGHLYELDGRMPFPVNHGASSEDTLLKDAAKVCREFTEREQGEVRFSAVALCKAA

UUO injured kidneys = experiment: UUO model of tubulointerstitial fibrosis; format: in vivo, C57BL/6 mice; settings: 10 days
From the text: (a) Bleomycin-induced lung fibrosis model, which is a leading preclinical in vivo model of Idiopathic Pulmonary Fibrosis. [Kobayashi et al, 2016, J Immunol, 197(2):504-516] (b) Diet-induced model of NAFLD and glucose homeostasis. [Nishida et al, 2013, Lab Invest; February; 93(2):230-41] (c) MPTP Model of Parkinson's Disease, which is a commonly used paradigm for looking at neurodegeneration in the dopaminergic system of the brain which is triggered by chemically-induced mitochondrial dysfunction. [Karuppagouner et al, 2014, Sci Rep. 2014 May 2; 4:4874] (d) Ndufs4KO Leigh syndrome model. [Kruse et al, 2008, Cell Metab. April; 7(4):312-20] (e) Aged rodent model: effects on hippocampal, cognitive and motor function. [Kobilo et al, 2014, Learn Mem. January 17; 21(2):119-26; Creed et al, 2019, Neuroscience. June 15; 409:169-179; Van Skike et al, 2020, Aging Cell. 19; e13057]. Example 1 was assessed in this model. (f) UUO causes renal injury characterised by tubular cell injury, interstitial inflammation and fibrosis. It serves as a model of irreversible post-renal acute kidney injury (AKI). […]
Example 1 was assessed in the UUO model to determine the ability of the compound to attenuate progressive tubulointerstitial fibrosis and chronic kidney disease (CKD). […]

5-HT2b = molecular target: T2, 5-HT2b (Homo sapiens, UniProt P41595); experiment: Eurofins CEREP SafetyScreen44 panel, 5-HT2b; format: binding
T2 construct: purchased Eurofins CEREP (contract screening panel) SafetyScreen44
T2 sequence (P41595 whole entry): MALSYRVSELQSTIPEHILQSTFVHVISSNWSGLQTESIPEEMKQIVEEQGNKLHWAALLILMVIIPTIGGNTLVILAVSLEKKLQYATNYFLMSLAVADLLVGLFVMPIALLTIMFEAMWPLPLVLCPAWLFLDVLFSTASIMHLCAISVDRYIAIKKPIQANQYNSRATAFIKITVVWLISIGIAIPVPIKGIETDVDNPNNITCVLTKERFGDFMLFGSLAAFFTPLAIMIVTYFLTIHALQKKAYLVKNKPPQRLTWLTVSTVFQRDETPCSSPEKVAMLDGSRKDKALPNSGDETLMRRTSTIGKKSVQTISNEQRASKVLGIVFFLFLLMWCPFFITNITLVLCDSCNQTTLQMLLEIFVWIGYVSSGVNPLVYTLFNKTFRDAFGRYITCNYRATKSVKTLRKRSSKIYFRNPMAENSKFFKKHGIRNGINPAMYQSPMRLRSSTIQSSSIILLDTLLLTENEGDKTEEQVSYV
From the text: Example 2 was subject to pharmacological profiling in the Eurofins CEREP SafetyScreen44 panel.

USP30 = molecular target: T3, USP30 (Mus musculus, UniProt Q3UN04); experiment: USP30 brain tissue target engagement assay (TE ex vivo); format: in vivo; settings: 2 mg/kg iv, n = 2 avg
T3 construct: in either brain or kidney tissue samples from compound-dosed animals; from tissue; b325 calls 'TE ex vivo' a kidney tissue assay
T3 sequence (Q3UN04 whole entry): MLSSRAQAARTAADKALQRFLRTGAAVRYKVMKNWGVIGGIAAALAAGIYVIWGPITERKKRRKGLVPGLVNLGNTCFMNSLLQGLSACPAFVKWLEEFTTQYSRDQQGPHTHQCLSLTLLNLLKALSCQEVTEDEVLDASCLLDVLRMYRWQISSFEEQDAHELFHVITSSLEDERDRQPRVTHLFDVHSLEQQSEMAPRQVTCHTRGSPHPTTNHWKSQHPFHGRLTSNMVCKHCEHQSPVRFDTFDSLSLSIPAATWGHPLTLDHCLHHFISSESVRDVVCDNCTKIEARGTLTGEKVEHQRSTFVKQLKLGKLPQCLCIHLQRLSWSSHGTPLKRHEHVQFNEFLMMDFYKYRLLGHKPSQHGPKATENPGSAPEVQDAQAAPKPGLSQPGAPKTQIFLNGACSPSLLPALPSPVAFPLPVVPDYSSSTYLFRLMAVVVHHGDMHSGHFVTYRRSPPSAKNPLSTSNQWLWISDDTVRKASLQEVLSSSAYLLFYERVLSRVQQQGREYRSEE
Protocol: 50 to 100 mg of tissue was homogenised in 3× volume of lysis buffer (50 mM Tris-base, pH 7.5, 50 mM NaCl, 1% NP-40/Igepal CA-630, 2 mM MgCl2, 10% Glycerol, 5 mM beta-mercaptoethanol, cOmplete mini tablets EDTA free (Roche), PhosStop tablets (Roche)) using the Retch Mixer Mill (MM400). The lysates were cleared and protein quantified using the Bradford Protein assay (Pierce). Lysate containing 60 μg protein was incubated with a final conc of 24 μM of HA-Ahx-Ahx-Ub-VME probe for 60 mins at room temperature. The reaction was stopped by addition of 5×SDS sample loading buffer and proteins separated by SDS-PAGE and western blotting. USP30 was detected using an anti-USP30 Sheep S746D antibody (MRC PPU Reagents and Services) and a rabbit anti sheep secondary IgG (H+L) horseradish peroxidase conjugated (Thermo #31480) and visualised using ECL reagent (GE #RPN2109) on a GE LAS4000 imager. Target engagement was measured by quantitation of the bands corresponding to USP30 and USP30 bound to the Ub-VME probe and expression of this proportion compared to vehicle treated control.
MDR1-MDCK (Madin-Darby Canine Kidney cell monolayer) (in vitro) flux assay. Cell TE WB: USP30 endogenous cellular target engagement western blot (WB) assay. Assays the activity of compounds against USP30 in cells using an irreversible activity probe to monitor USP30 activity. […]

| SMILES | more selective for USP30 over DUB panel ([1]; v the 16 DUBs of the 9th table) | half-life (Mouse plasma stability) | induction of micronuclei (TK6 cells; 3 hours in the presence of exogenous metabolic activation) | induction of micronuclei (TK6 cells; 27 hours in the absence of exogenous metabolic activation) | IC50 (Cathepsin L) | DUB selectivity preference for USP30 v UCHL1 (UCHL1) | IC50 (UCHL1) | α-SMA levels in UUO injured kidneys v vehicle treated controls (UUO injured kidneys; 15, 5 and 1.5 mg/kg oral BID) | collagen deposition (picrosirius red staining) in ligated kidneys (UUO injured kidneys; 15, 5 and 1.5 mg/kg p.o. BID) | more selective for USP30 over DUB panel ([1]; v the 14 DUBs of the 10th table) | inhibition at 10 µM (5-HT2b) | TE ex vivo Mouse brain (%) at 15 min (USP30; 15 min) | TE ex vivo Mouse brain (%) at 60 min (USP30; 60 min) |
| --- | --- | --- | --- | --- | --- | --- | --- | --- | --- | --- | --- | --- | --- |
| COC[C@@H]1C[C@@H](NC(=O)c2ncc(-c3cccc(OC(F)(F)F)c3)o2)CN1C#N [Example 1, N-((3R,5S)-1-Cyano-5-(methoxymethyl)pyrrolidin-3-yl)-5-(3-(trifluoromethoxy)phenyl)oxazole-2-carboxamide] | (≥880 × more selective | 11 h | negative | negative | 17.7 µM | 60000 | > 300 µM | statistical reduction in α-SMA levels | statistically reduced collagen deposition |  |  |  |  |
| C[C@@H]1C[C@@H](NC(=O)c2ncc(-c3cccc(OC(F)(F)F)c3)o2)CN1C#N [Example 2, N-((3R,5R)-1-Cyano-5-methylpyrrolidin-3-yl)-5-(3-(trifluoromethoxy)phenyl)oxazole-2-carboxamide] |  | 7 h |  |  |  | 20000 | > 100 µM |  |  | (≥940 × more selective | 32% | 68% | 25% |
